pEC50: −log10 of the molar value.
Biological target: Sodium-dependent serotonin transporter (Homo sapiens, UniProt P31645, W103C)
Assay: Decrease in [3H]5-HT uptake at human SERT W103C mutant transfected in HEK293 cells

Sodium-dependent serotonin transporter, sequence (P31645 whole entry W103C): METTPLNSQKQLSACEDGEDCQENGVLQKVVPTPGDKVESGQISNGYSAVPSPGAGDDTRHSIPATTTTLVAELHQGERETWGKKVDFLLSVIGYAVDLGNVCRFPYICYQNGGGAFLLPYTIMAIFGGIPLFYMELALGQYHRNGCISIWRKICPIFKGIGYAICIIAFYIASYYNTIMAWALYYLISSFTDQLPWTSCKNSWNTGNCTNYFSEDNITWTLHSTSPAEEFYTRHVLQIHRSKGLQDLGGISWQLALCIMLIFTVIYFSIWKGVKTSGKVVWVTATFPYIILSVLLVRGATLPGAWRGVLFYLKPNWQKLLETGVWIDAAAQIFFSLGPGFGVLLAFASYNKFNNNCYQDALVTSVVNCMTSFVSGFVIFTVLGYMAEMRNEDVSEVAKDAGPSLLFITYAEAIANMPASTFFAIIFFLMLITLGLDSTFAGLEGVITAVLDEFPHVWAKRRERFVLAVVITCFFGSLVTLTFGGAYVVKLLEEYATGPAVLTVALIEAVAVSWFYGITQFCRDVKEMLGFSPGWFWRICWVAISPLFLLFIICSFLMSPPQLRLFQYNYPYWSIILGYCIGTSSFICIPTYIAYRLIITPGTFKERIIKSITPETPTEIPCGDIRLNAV

| Compound | pEC50 |
| --- | --- |
| C[n+]1ccc(-c2ccc(SS(C)(=O)=O)cc2)cc1 | 4.50 |
| C[N+](C)(C)CCSS(C)(=O)=O | 3.30 |
